Assay results published in ChEMBL document CHEMBL3879905, “Methods of using macrocyclic modulators of the ghrelin receptor” (2013).
Active and inactive are the calls of the source. No cut-off for these calls is given here.

What was measured:
[1] = test system: Rattus norvegicus; assay: Induction of gastric emptying of solid meal in Wistar rat gastroparesis model at 10 mg/kg, iv administered immediately post phenol red containing methylcellulose meal intake measured after 15 mins by colorimetric method relative to vehicle-treated control; type: functional, Stomach
[2] = test system: Rattus norvegicus; assay: Gastrokinetic activity in Wistar rat gastroparesis model at 10 mg/kg, iv administered immediately post phenol red containing methylcellulose meal intake measured after 15 mins by colorimetric method relative to vehicle-treated control; type: functional, organism-based
[3] = test system: Rattus norvegicus; assay: Induction of gastric emptying of solid meal in Wistar rat gastroparesis model at 100 ug/kg, iv administered immediately post phenol red containing methylcellulose meal intake measured after 15 mins by colorimetric method relative to vehicle-treated control; type: functional, Stomach
[4] = Metabolic stability in human plasma assessed as compound recovery in presence of PBS at 2 hrs by LC-MS analysis; type: ADME, cell-free; conditions: read-out: Drug recovery
[5] = target: Cytochrome P450 3A4 (Homo sapiens, UniProt P08684); assay: Inhibition of human CYP3A4 at 0.0457 to 100 uM; type: ADME
Sequence of Cytochrome P450 3A4 (P08684 whole entry): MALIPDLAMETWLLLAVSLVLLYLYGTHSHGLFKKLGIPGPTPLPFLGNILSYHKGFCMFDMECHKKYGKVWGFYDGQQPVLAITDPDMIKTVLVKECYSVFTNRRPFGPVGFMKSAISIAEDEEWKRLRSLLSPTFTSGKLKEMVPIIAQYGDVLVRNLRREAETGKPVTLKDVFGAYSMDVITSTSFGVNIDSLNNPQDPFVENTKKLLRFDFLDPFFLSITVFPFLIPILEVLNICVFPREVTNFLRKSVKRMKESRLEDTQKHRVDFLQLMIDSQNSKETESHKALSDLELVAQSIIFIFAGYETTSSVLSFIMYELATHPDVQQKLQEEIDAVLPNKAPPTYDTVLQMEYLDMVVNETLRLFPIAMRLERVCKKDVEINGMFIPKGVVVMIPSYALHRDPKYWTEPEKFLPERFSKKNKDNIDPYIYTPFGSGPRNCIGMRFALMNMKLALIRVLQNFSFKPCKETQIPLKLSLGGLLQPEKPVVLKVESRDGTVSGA

Row | remaining at 2 h [4] [%] | inhibition (INH) [5] | SMILES | Activity [1] [%] | Activity [2] | Activity [3]
1 | – | – | CCN(CC)CCNC(=O)c1cc(Cl)c(N)cc1OC.Cl | 41 | Active | –
2 | 99 | Active | C[C@@H]1CN[C@@H](C2CC2)C(=O)N(C)[C@H](C)C(=O)N[C@H](Cc2ccc(F)cc2)C(=O)NCCCc2ccccc2O1 [ULIMORELIN] | – | – | 30 - 39%
